Data reported in ChEMBL document CHEMBL1139332, “Selective activity against Mycobacteriumtuberculosis of new quinoxaline 1,4-di-N-oxides” (Bioorg Med Chem, 2009).
Converted amounts (≈) assume the structure as drawn.

What was measured:
Vero = assay: Cytotoxicity against african green monkey Vero cells after 72 hrs by MTT assay; format: cell-based, Chlorocebus sabaeus; details: Chlorocebus sabaeus, Vero, 72 h; read-out: IC50
[1] = tested on: Mycobacterium tuberculosis; assay: Antimicrobial activity against Mycobacterium tuberculosis H37Rv at 6.25 ug/ml by microplate alamar blue assay; format: functional
[2] = Selectivity index, ratio of IC50 for african green monkey Vero cells to MIC for Mycobacterium tuberculosis H37Rv; format: functional
[3] = tested on: Mycobacterium tuberculosis; assay: Antimicrobial activity against Mycobacterium tuberculosis H37Rv by microplate alamar blue assay; format: functional

Cc1cc2c(cc1C)[n+]([O-])c(-c1ccccc1)c(C#N)[n+]2[O-]
IC50 (Vero): 3.9 µg/mL (≈ 13.4 µM)
inhibition at 6.25 µg/mL [1]: 90%
Ratio [2]: 10
MIC [3]: 0.39 µg/mL (≈ 1.34 µM)

COC(=O)c1ccc(-c2c(C#N)[n+]([O-])c3ccccc3[n+]2[O-])cc1
IC50 (Vero): 4.8 µg/mL (≈ 14.9 µM)
inhibition at 6.25 µg/mL [1]: 90%
Ratio [2]: 6.2
MIC [3]: 0.78 µg/mL (≈ 2.43 µM)

Cc1ccc(-c2c(C#N)[n+]([O-])c3cc(Cl)c(Cl)cc3[n+]2[O-])cc1
IC50 (Vero): 0.72 µg/mL (≈ 2.08 µM)
inhibition at 6.25 µg/mL [1]: 90%
Ratio [2]: 0.23
MIC [3]: 3.13 µg/mL (≈ 9.04 µM)

Cc1cc2c(cc1C)[n+]([O-])c(-c1ccc(F)cc1)c(C#N)[n+]2[O-]
IC50 (Vero): 100 µg/mL (≈ 323 µM)
inhibition at 6.25 µg/mL [1]: 90%
Ratio [2]: >59.07
MIC [3]: 1.69 µg/mL (≈ 5.46 µM)

CCOC(=O)c1c(-c2ccccc2)[n+]([O-])c2ccc(Cl)cc2[n+]1[O-]
IC50 (Vero): 3.33 µg/mL (≈ 9.66 µM)
inhibition at 6.25 µg/mL [1]: 90%
Ratio [2]: 2.13
MIC [3]: 1.56 µg/mL (≈ 4.52 µM)

COC(=O)c1ccc(-c2c(C#N)[n+]([O-])c3cc(C(F)(F)F)ccc3[n+]2[O-])cc1
IC50 (Vero): 1.93 µg/mL (≈ 4.96 µM)
inhibition at 6.25 µg/mL [1]: 90%
Ratio [2]: >9.64
MIC [3]: < 0.2 µg/mL

CCOC(=O)c1c(-c2ccccc2)[n+]([O-])c2ccc(OC)cc2[n+]1[O-]
IC50 (Vero): 17.8 µg/mL (≈ 52.2 µM)
inhibition at 6.25 µg/mL [1]: 90%
Ratio [2]: 2.84
MIC [3]: 6.25 µg/mL (≈ 18.4 µM)

CCOC(=O)c1c(-c2ccccc2)[n+]([O-])c2ccccc2[n+]1[O-]
IC50 (Vero): 24.8 µg/mL (≈ 79.8 µM)
inhibition at 6.25 µg/mL [1]: 90%
Ratio [2]: 15.87
MIC [3]: 1.56 µg/mL (≈ 5.03 µM)

N#Cc1c(-c2ccccc2)[n+]([O-])c2ccccc2[n+]1[O-]
IC50 (Vero): 1.9 µg/mL (≈ 7.22 µM)
inhibition at 6.25 µg/mL [1]: 90%
Ratio [2]: 9.5
MIC [3]: 0.2 µg/mL (≈ 0.76 µM)

Cc1ccc2c(c1)[n+]([O-])c(C#N)c(-c1ccccc1)[n+]2[O-]
IC50 (Vero): 3.6 µg/mL (≈ 13 µM)
inhibition at 6.25 µg/mL [1]: 90%
Ratio [2]: 9.2
MIC [3]: 0.39 µg/mL (≈ 1.41 µM)

Cc1ccc(-c2c(C#N)[n+]([O-])c3cc(C)c(C)cc3[n+]2[O-])cc1
IC50 (Vero): > 62.5 µg/mL
inhibition at 6.25 µg/mL [1]: 90%
Ratio [2]: >40
MIC [3]: 1.56 µg/mL (≈ 5.11 µM)

COC(=O)c1ccc(-c2c(C#N)[n+]([O-])c3cc(C)c(C)cc3[n+]2[O-])cc1
IC50 (Vero): 9.66 µg/mL (≈ 27.7 µM)
inhibition at 6.25 µg/mL [1]: 90%
Ratio [2]: 1.5
MIC [3]: 6.25 µg/mL (≈ 17.9 µM)

Cc1cc2c(cc1C)[n+]([O-])c(N1CCN(c3ccc([N+](=O)[O-])cc3)CC1)c(C#N)[n+]2[O-]
Ratio [2]: >125
MIC [3]: < 0.2 µg/mL

Cc1c(C(=O)OCc2ccccc2)[n+]([O-])c2cc(Cl)ccc2[n+]1[O-]
Ratio [2]: 470
MIC [3]: 0.1 µg/mL (≈ 0.29 µM)

N#Cc1c(-c2ccc(F)cc2)[n+]([O-])c2ccc(Cl)cc2[n+]1[O-]
IC50 (Vero): 51.7 µg/mL (≈ 164 µM)
inhibition at 6.25 µg/mL [1]: 90%
Ratio [2]: >258.67
MIC [3]: < 0.2 µg/mL

Cc1ccc2c(c1)[n+]([O-])c(C#N)c(-c1ccc(F)cc1)[n+]2[O-]
IC50 (Vero): > 100 µg/mL
inhibition at 6.25 µg/mL [1]: 90%
Ratio [2]: >500
MIC [3]: < 0.2 µg/mL

Cc1ccc2c(c1)[n+]([O-])c(C#N)c(-c1ccc(Cl)cc1)[n+]2[O-]
IC50 (Vero): 0.45 µg/mL (≈ 1.44 µM)
inhibition at 6.25 µg/mL [1]: 90%
Ratio [2]: 1.15
MIC [3]: 0.39 µg/mL (≈ 1.25 µM)

Cc1ccc(-c2c(C#N)[n+]([O-])c3ccccc3[n+]2[O-])cc1
IC50 (Vero): 0.68 µg/mL (≈ 2.45 µM)
inhibition at 6.25 µg/mL [1]: 90%
Ratio [2]: 1.7
MIC [3]: 0.39 µg/mL (≈ 1.41 µM)

Cc1ccc(-c2c(C#N)[n+]([O-])c3cc(Cl)ccc3[n+]2[O-])cc1
IC50 (Vero): 0.63 µg/mL (≈ 2.02 µM)
inhibition at 6.25 µg/mL [1]: 90%
Ratio [2]: 0.1
MIC [3]: 6.25 µg/mL (≈ 20 µM)

N#Cc1c(-c2ccc(F)cc2)[n+]([O-])c2cc(Cl)c(Cl)cc2[n+]1[O-]
IC50 (Vero): 7.41 µg/mL (≈ 21.2 µM)
inhibition at 6.25 µg/mL [1]: 90%
Ratio [2]: >37.06
MIC [3]: < 0.2 µg/mL

COc1ccc2c(c1)[n+]([O-])c(C#N)c(-c1ccc(C)cc1)[n+]2[O-]
IC50 (Vero): 3.8 µg/mL (≈ 12.4 µM)
inhibition at 6.25 µg/mL [1]: 90%
Ratio [2]: 2.4
MIC [3]: 1.56 µg/mL (≈ 5.08 µM)

COC(=O)c1ccc(-c2c(C#N)[n+]([O-])c3cc(Cl)ccc3[n+]2[O-])cc1
IC50 (Vero): 20.9 µg/mL (≈ 58.7 µM)
inhibition at 6.25 µg/mL [1]: 90%
Ratio [2]: 6.7
MIC [3]: 3.13 µg/mL (≈ 8.8 µM)

COC(=O)c1ccc(-c2c(C#N)[n+]([O-])c3cc(C)ccc3[n+]2[O-])cc1
IC50 (Vero): 3.2 µg/mL (≈ 9.54 µM)
inhibition at 6.25 µg/mL [1]: 90%
Ratio [2]: 8.2
MIC [3]: 0.39 µg/mL (≈ 1.16 µM)

COC(=O)c1ccc(-c2c(C#N)[n+]([O-])c3cc(OC)ccc3[n+]2[O-])cc1
IC50 (Vero): 3.9 µg/mL (≈ 11.1 µM)
inhibition at 6.25 µg/mL [1]: 90%
Ratio [2]: 1.2
MIC [3]: 3.13 µg/mL (≈ 8.91 µM)

N#Cc1c(-c2ccc(F)cc2)[n+]([O-])c2ccccc2[n+]1[O-]
IC50 (Vero): 3.83 µg/mL (≈ 13.6 µM)
inhibition at 6.25 µg/mL [1]: 90%
Ratio [2]: >19.16
MIC [3]: < 0.2 µg/mL

N#Cc1c(-c2ccccc2)[n+]([O-])c2ccc(F)cc2[n+]1[O-]
IC50 (Vero): 17.6 µg/mL (≈ 62.6 µM)
inhibition at 6.25 µg/mL [1]: 90%
Ratio [2]: >88.03
MIC [3]: < 0.2 µg/mL

N#Cc1c(-c2ccc(F)cc2)[n+]([O-])c2ccc(F)cc2[n+]1[O-]
IC50 (Vero): 24.9 µg/mL (≈ 83.3 µM)
inhibition at 6.25 µg/mL [1]: 90%
Ratio [2]: >124.67
MIC [3]: < 0.2 µg/mL

N#Cc1c(-c2ccc(Cl)cc2)[n+]([O-])c2ccc(F)cc2[n+]1[O-]
IC50 (Vero): 47.9 µg/mL (≈ 152 µM)
inhibition at 6.25 µg/mL [1]: 90%
Ratio [2]: >239.69
MIC [3]: < 0.2 µg/mL

Cc1ccc(-c2c(C#N)[n+]([O-])c3cc(C(F)(F)F)ccc3[n+]2[O-])cc1
IC50 (Vero): 0.28 µg/mL (≈ 0.811 µM)
inhibition at 6.25 µg/mL [1]: 90%
Ratio [2]: >1.42
MIC [3]: < 0.2 µg/mL

COc1ccc(-c2c(C#N)[n+]([O-])c3cc(F)ccc3[n+]2[O-])cc1
IC50 (Vero): 13 µg/mL (≈ 41.9 µM)
inhibition at 6.25 µg/mL [1]: 90%
Ratio [2]: 65.15
MIC [3]: < 0.2 µg/mL

N#Cc1c(-c2ccccc2)[n+]([O-])c2ccc(C(F)(F)F)cc2[n+]1[O-]
IC50 (Vero): 3.78 µg/mL (≈ 11.4 µM)
inhibition at 6.25 µg/mL [1]: 90%
Ratio [2]: >18.89
MIC [3]: < 0.2 µg/mL

N#Cc1c(-c2ccc(F)cc2)[n+]([O-])c2ccc(C(F)(F)F)cc2[n+]1[O-]
IC50 (Vero): 0.99 µg/mL (≈ 2.83 µM)
inhibition at 6.25 µg/mL [1]: 90%
Ratio [2]: >4.94
MIC [3]: < 0.2 µg/mL

CCOC(=O)c1c(-c2ccccc2)[n+]([O-])c2ccc(C)cc2[n+]1[O-]
IC50 (Vero): 18.6 µg/mL (≈ 57.4 µM)
inhibition at 6.25 µg/mL [1]: 90%
Ratio [2]: 11.93
MIC [3]: 1.56 µg/mL (≈ 4.81 µM)

Cc1cc2c(cc1C)[n+]([O-])c(-c1ccc(Cl)cc1)c(C#N)[n+]2[O-]
IC50 (Vero): > 10 µg/mL
inhibition at 6.25 µg/mL [1]: 90%
Ratio [2]: >12.8
MIC [3]: 0.78 µg/mL (≈ 2.39 µM)

COc1ccc(-c2c(C#N)[n+]([O-])c3cc(C(F)(F)F)ccc3[n+]2[O-])cc1
IC50 (Vero): 0.9 µg/mL (≈ 2.49 µM)
inhibition at 6.25 µg/mL [1]: 90%
Ratio [2]: >4.53
MIC [3]: < 0.2 µg/mL

N#Cc1c(-c2ccccc2)[n+]([O-])c2ccc(Cl)cc2[n+]1[O-]
IC50 (Vero): 0.36 µg/mL (≈ 1.21 µM)
inhibition at 6.25 µg/mL [1]: 90%
Ratio [2]: 0.92
MIC [3]: 0.39 µg/mL (≈ 1.31 µM)

N#Cc1c(-c2ccc(Cl)cc2)[n+]([O-])c2ccccc2[n+]1[O-]
IC50 (Vero): 0.36 µg/mL (≈ 1.21 µM)
inhibition at 6.25 µg/mL [1]: 90%
Ratio [2]: 0.92
MIC [3]: 0.39 µg/mL (≈ 1.31 µM)

COc1ccc2c(c1)[n+]([O-])c(C#N)c(-c1ccc(Cl)cc1)[n+]2[O-]
IC50 (Vero): 1 µg/mL (≈ 3.05 µM)
inhibition at 6.25 µg/mL [1]: 90%
Ratio [2]: 1.3
MIC [3]: 0.78 µg/mL (≈ 2.38 µM)

COc1ccc2c(c1)[n+]([O-])c(C#N)c(-c1ccc(F)cc1)[n+]2[O-]
IC50 (Vero): 95.1 µg/mL (≈ 306 µM)
inhibition at 6.25 µg/mL [1]: 90%
Ratio [2]: >475.55
MIC [3]: < 0.2 µg/mL

COC(=O)c1ccc(-c2c(C#N)[n+]([O-])c3cc(F)ccc3[n+]2[O-])cc1
IC50 (Vero): 57.5 µg/mL (≈ 169 µM)
inhibition at 6.25 µg/mL [1]: 90%
Ratio [2]: >258.67
MIC [3]: < 0.2 µg/mL

Cc1ccc(-c2c(C#N)[n+]([O-])c3cc(F)ccc3[n+]2[O-])cc1
IC50 (Vero): 14.6 µg/mL (≈ 49.6 µM)
inhibition at 6.25 µg/mL [1]: 90%
Ratio [2]: >73.19
MIC [3]: < 0.2 µg/mL

N#Cc1c(-c2ccc(Cl)cc2)[n+]([O-])c2ccc(C(F)(F)F)cc2[n+]1[O-]
IC50 (Vero): 1.34 µg/mL (≈ 3.66 µM)
inhibition at 6.25 µg/mL [1]: 90%
Ratio [2]: >6.68
MIC [3]: < 0.2 µg/mL
